Measured values taken from article PMC10989506, “Cell penetration of oxadiazole-containing macrocycles” (RSC Chemical Biology, 2024).
Several values for one entry are separate records, joined by “and”; a condition that tells them apart may be missing. Identical values can stand only once. *1 amine or outer side, *2 acyl side, *3 side chain or, on linkers, in order; H or OH if unused. Where a SMILES comes first, the peptide text is derived from it. Side-chain parts run from the residue outwards. The star is where a group is joined. NH(CH2CH2O)2(CH2)6Cl = ClCCCCCCOCCOCCN*; Suc = O=C(CCC(=O)[*:2])[*:1]

Key:
[1] = PAMPA; for −log Pe: pH 7.4
Protocol: (§1) 5 Parallel Artificial Membrane Permeability Assay (PAMPA)
(§2) PAMPA analysis was conducted following a procedure reported by Lokey and coworkers. 9 Each measurement was conducted at room temperature in an insulated polystyrene box to maintain a constant internal temperature. Measurements were taken in triplicate, and the reported permeability values are the average value over the three runs. Carbamaz epine was included in the stock solution of each cyclic peptide to verify the integrity of the membrane as an internal standard.
(§3) Preparation of stock solution for donor well: Stock solutions were prepared by dissolving the […]
cyclic peptide (0.5 mM) and carbamazepine (0.5 mM) (as an internal standard) in DMSO at a gross […]
concentration of 1 mM. 10 μL of this stock solution was added to 990 μL PBS buffer (pH 7.4) to […]
give a 1 mL solution (10 μM, 1% DMSO v/v) for addition to the donor plate wells.
Preparation of acceptor plate: A stock solution of 5% DMSO in PBS buffer was prepared, and […]
300μL of this solution was added to each of the acceptor wells (96-well Teflon acceptor plate […]
Preparation of donor plate: 100 mg of lethicin (90%, soybean) was suspended in n -dodecane (10 […]
mL) and sonicated to give a homogenous, clear solution. 5 μL of this solution was carefully applied […]
to the membrane in the 96-well donor plate (with 0.45 μm hydrophobic Immobilon-P membrane […]
supports (Millipore MAIPNTR10)) (with care, without touching the membrane). Shortly after (~5 - […]
15 min), 150 μL of the 10 μM stock solution of cyclic peptide and carbamazepine (prepared as […]
above) were added to the donor well. The donor plate was placed on top of the acceptor wells and […]

[2] = tested on: HeLa cells stably expressing the HaloTag-GFP-Mito construct; assay: Chloroalkane Penetration Assay (CAPA); assay type: cell-based
Text: Cell-based assays such as the Caco-2 assay and Madin–Darby canine kidney cell line (MDCK) permeability assay have been employed to offer a fuller assessment of transport in vitro.[22,23] The chloroalkane penetration assay (CAPA) is a relatively recent methodology for measuring cell penetration in live cells (Fig. 1d).[24] This assay uses cells that express a modified haloalkane dehalogenase known as HaloTag that reacts rapidly, selectively, and irreversibly with small chloroalkane ligands.[25,26] CAPA measures cytosolic penetration by pulsing cells with a chloroalkane-tagged compound (ct-compound), then chasing with a chloroaklane-tagged dye (ct-dye). If the ct-compound penetrates the cell and escapes from endosomes, it reacts with HaloTag and blocks the reaction with the ct-dye in the subsequent chase step. Thus, in CAPA, cell penetration of the ct-molecule is inversely proportional to the signal from the ct-dye retained in the cells. The dose dependence of this signal can be fit to a sigmoidal curve, whose midpoint value (called the CP50) can be compared among ct-compounds as a quantitative comparison of cell penetration.[27,28] CAPA is a cost-effective and high-throughput method for measuring the cell penetration of cyclic peptides and other molecules, and it establishes penetration to the cytosol without interference from material trapped in endosomes. In this work, we use CAPA to investigate the cell penetration of Odz macrocycles.
3 Chloroalkane Penetration Assay (CAPA)
Media was aspirated and cells were
washed with serum-free media.
Lysate stability assays were performed essentially as described. 8 For lysate stability assays, HeLa

in vitro = assay: in vitro
Protocol: (1 picture or pasted object on this page, not shown here) […]
were taken at each time point and quenched in 160 μL of ice-cold methanol. Samples were spun down for 10 min at 21,000 g prior to analysis by reverse phase analytical HPLC on a C18 column.
Chromatogram peaks were integrated to measure amount of peptide remaining at each time point.
Peak volumes for each timepoint were normalized to the zero-hour timepoint to determine percentage of peptide remaining. Data presented are the average of three biological replicates performed with different lysates on different days.
as §1, §2, §3

[3] = Relative hydrophobicity by reverse-phase HPLC retention time; assay type: physicochemical; settings: C18 LC-MS, gradient 95%/5% MeCN to 100% MeCN over 15 min; measure of relative lipophilicity
Text: To provide additional evidence for this hypothesis, we used the retention time on reverse phase HPLC as a measure of the overall relative lipophilicity. […] Overall, the more lipophilic cyclic peptides had more efficient cell penetration than the more hydrophilic ones.

| Structure (SMILES) | −log Pe [1] | other results |
| --- | --- | --- |
| CC[C@H]1C2=NN=C(O2)[C@H](Cc2ccccc2)NC(=O)CNC(=O)[C@H](CCCCNC(=O)CCC(=O)NCCOCCOCCCCCCCl)NC(=O)CNC(=O)[C@@H]2CCCN21 [Compound 2] | 7.92 ± 0.07 |  |
| CC[C@H]1C2=NN=C(O2)[C@H](Cc2ccccc2)NC(=O)CNC(=O)[C@H](CC(C)C)NC(=O)[C@H](CCCCNC(=O)CCC(=O)NCCOCCOCCCCCCCl)NC(=O)[C@@H]2CCCN21 [Compound 3] | 7.84 ± 0.04 |  |
| CC[C@@H]1N[C@@H](CCCCNC(=O)CCC(=O)NCCOCCOCCCCCCCl)C(=O)NCC(=O)N[C@@H](CC(C)C)C(=O)NCC(=O)N[C@@H](Cc2ccccc2)C2=NN=C1O2 [Compound 4] | 7.85 ± 0.052 |  |
| CC(C)C[C@@H]1NC(=O)CNC(=O)[C@@H]2CCCN2C(=O)[C@H](C)NC(=O)[C@H](Cc2ccccc2)NC(=O)[C@H](CCCCNC(=O)CCC(=O)NCCOCCOCCCCCCCl)NC1=O [Compound 8] (cyclo(PGLK([Suc-NH(CH2CH2O)2(CH2)6Cl])FA)) | >8 | cell penetration, fold worse than compound 1 ([2]; CAPA CP50 compared with compound 1): more than 20 fold; CP50 after 30 min incubation ([2]; ct-peptides incubated with cells in Opti-MEM for 30 min prior to chasing with ct-dye): 1.0 µM and 1.0 ± 0.03 µM; CP50 after 4 h incubation ([2]; ct-peptides incubated with cells in Opti-MEM for 4 h prior to chasing with ct-dye): 0.22 µM and 0.22 ± 0.02 µM; intact compound remaining in HeLa lysate (in vitro; 4 h): almost no intact macrocycle; remaining at 1 h, 150 μM (in vitro; human, cells or culture medium, pH 8): ~50%; T ret [3]: 7.95 min |
| NC(=O)N1c2ccccc2C=Cc2ccccc21 [carbamazepine, reference compound] |  | -Log Papp [1]: 5.7–5.8 |

Now from value to molecule, other results behind:

| −log Pe [1] | Structure (SMILES) | other results |
| --- | --- | --- |
| >8 | CC[C@H]1C2=NN=C(O2)[C@H](CCCCNC(=O)CCC(=O)NCCOCCOCCCCCCCl)NC(=O)CNC(=O)[C@H](CC(C)C)NC(=O)CNC(=O)[C@@H]2CCCN21 [Compound 5] |  |
| >8 | CC[C@H]1C2=NN=C(O2)[C@H](Cc2ccccc2)NC(=O)[C@H](CCCCNC(=O)CCC(=O)NCCOCCOCCCCCCCl)NC(=O)[C@H](CC(C)C)NC(=O)[C@H](CC(=O)O)NC(=O)[C@@H]2CCCN21 [Compound 6] |  |
| >8 | CC[C@H]1C2=NN=C(O2)[C@H](Cc2ccccc2)NC(=O)[C@H](CCCCNC(=O)CCC(=O)NCCOCCOCCCCCCCl)NC(=O)[C@H](CC(=O)O)NC(=O)[C@H](CC(=O)O)NC(=O)[C@@H]2CCCN21 [Compound 7] |  |
